Like-named read-outs stand apart in the source and are kept apart here.
Experiments:
α1a adrenergic receptor = molecular target: T1, α1a adrenergic receptor (Homo sapiens, UniProt P35348); experiment: Radioligand binding assay ([3H]prazosin) on cloned α1-adrenoceptor subtype, membranes of transfected cells
T1 sequence (P35348 1-466): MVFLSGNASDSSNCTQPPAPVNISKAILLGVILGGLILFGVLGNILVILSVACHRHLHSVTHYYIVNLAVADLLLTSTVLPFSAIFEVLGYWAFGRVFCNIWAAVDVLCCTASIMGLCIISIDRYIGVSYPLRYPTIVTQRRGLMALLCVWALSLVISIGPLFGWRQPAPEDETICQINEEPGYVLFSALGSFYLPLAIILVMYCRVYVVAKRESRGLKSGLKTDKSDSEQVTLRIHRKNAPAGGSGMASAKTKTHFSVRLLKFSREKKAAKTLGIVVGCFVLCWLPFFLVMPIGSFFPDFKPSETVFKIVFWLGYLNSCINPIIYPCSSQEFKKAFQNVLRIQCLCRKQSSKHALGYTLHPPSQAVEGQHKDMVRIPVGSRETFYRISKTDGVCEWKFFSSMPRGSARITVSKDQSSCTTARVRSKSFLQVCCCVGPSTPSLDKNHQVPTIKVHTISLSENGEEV
Experimental: (§2) Determination of affinity for cloned subtypes of the cloned α1-adrenoceptor was performed in membranes from cells transfected by electroporation with DNA expressing the genes encoding each α1-adrenoceptor subtype.
(§3) Non-specific binding was determined in the presence of 10 µM phentolamine. Incubation was stopped by addition of ice-cold Tris buffer and rapid filtration through 0.2%-polyethyleneimine pretreated Schleicher & Schuell GF52 filters. […] The homogenates were centrifuged at 40000 × g × 20 minutes and the membranes were resuspended in a small volume of ice-cold buffer containing Tris 5 mM and EDTA 5 mM (pH 7.4) and immediately frozen and stored at -70°C until use.

[1] = molecular target: T2, recombinant α1d-adrenoceptor (Homo sapiens, UniProt P25100); experiment: as above
T2 sequence (P25100 1-572): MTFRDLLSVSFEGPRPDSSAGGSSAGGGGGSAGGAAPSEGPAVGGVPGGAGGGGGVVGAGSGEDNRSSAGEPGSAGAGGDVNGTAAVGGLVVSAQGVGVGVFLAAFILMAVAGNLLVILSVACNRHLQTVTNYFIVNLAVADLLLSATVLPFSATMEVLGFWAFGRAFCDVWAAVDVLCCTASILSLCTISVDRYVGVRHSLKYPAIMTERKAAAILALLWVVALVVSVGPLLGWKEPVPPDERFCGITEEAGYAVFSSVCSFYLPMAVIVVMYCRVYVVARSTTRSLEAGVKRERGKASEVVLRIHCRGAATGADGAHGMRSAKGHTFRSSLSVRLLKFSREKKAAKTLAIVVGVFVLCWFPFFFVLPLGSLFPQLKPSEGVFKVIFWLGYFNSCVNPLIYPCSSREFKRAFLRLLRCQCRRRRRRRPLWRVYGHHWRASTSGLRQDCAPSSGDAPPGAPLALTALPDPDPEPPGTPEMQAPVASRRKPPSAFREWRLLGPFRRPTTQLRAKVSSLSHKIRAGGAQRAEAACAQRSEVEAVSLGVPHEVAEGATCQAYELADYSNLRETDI
Experimental: as §2, §3

[2] = tested on: urethral contractions (UP) induced by noradrenaline (NA); experiment: Urethral contractions induced by noradrenaline injection in anaesthetised dogs, i.v. administration; assay type: in vivo; details: dog; for ED50: Canis lupus familiaris, iv, dose inhibiting by 50% urethral contractions induced by noradrenaline, read-out: UP ID50 NA; for R1 (DBP/NA): ratio DBP ED25 / UP ID50 NA
Experimental: (§1) The experiments were performed according to the method of Imagawa J. et al., J Pharmacol. Methods 22, 103-111 (1989), with substantial modifications, as follows: adult male beagle dogs, weighing 8-10 kg, were anaesthetised with pentobarbital sodium (30 mg/kg i.v. and 2 mg/kg/h i.v.), intubated and spontaneously ventilated with room air. In order to monitor systemic blood pressure (BP), a polyethylene (PE) catheter was introduced into the aortic arch through the left femoral artery. A collateral of the left femoral vein was cannulated for infusion of anaesthetic, and the right femoral vein was cannulated for administration of the compounds. For intraarterial (i.a.) injection of noradrenaline (NA), a PE catheter was introduced into the lower portion of the abdominal aorta via the right external iliac artery. Through such procedure, NA was selectively distributed to the lower urinary tract. A paramedian vertical suprapubic incision extending from the base of the pelvis to the mid-abdominal region was made and the bladder and the prostate were exposed. The bladder was manually emptied with a syringe. […] The distal end of the right or left branch of the nerve was placed on a bipolar platinum electrode. Prostatic urethral pressure was monitored with a Mikro-tip cathe[…]) introduced into the bladder via the external urethral meatus, and withdrawn until the pressure transducer was positioned in the prostatic region of the urethra. A ligature was secured between the neck of the bladder and urethra to isolate the response of the latter and to avoid any interaction with the bladder. Another ligature was put around the Mikro-tip catheter at the external meatus, to secure the catheter itself. […] Both i.a. injections of NA and stimulations of the hypogastric nerve were repeated 5 minutes after every dosing of test compound with intervals of about 5 minutes between two stimulations. In order to compare the effects of the administered compound, dose/response curves were constructed by computing, at the peak effect, the percent decrease in diastolic blood pressure and the percent inhibition of the increase in urethral pressure induced by both types of stimulation used.

[3] = tested on: diastolic blood pressure (DBP); experiment: Effect on diastolic blood pressure in anaesthetised dogs, i.v. administration; assay type: in vivo; details: dog, dose inducing a 25% decrease in diastolic blood pressure, one value spanning c3 and c4
Experimental: The experiments were performed according to the method of Imagawa J. et al., J Pharmacol. Methods 22, 103-111 (1989), with substantial modifications, as follows: adult male beagle dogs, weighing 8-10 kg, were anaesthetised with pentobarbital sodium (30 mg/kg i.v. and 2 mg/kg/h i.v.), intubated and spontaneously ventilated with room air. In order to monitor systemic blood pressure (BP), a polyethylene (PE) catheter was introduced into the aortic arch through the left femoral artery. A collateral of the left femoral vein was cannulated for infusion of anaesthetic, and the right femoral vein was cannulated for administration of the compounds. For intraarterial (i.a.) injection of noradrenaline (NA), a PE catheter was introduced into the lower portion of the abdominal aorta via the right external iliac artery. Through such procedure, NA was selectively distributed to the lower urinary tract. A paramedian vertical suprapubic incision extending from the base of the pelvis to the mid-abdominal region was made and the bladder and the prostate were exposed. The bladder was manually emptied with a syringe. […] The distal end of the right or left branch of the nerve was placed on a bipolar platinum electrode. Prostatic urethral pressure was monitored with a Mikro-tip catheter (5F) introduced into the bladder via the external urethral meatus, and withdrawn until the pressure transducer was positioned in the prostatic region of the urethra. A ligature was secured between the neck of the bladder and urethra to isolate the response of the latter and to avoid any interaction with the bladder. Another ligature was put around the Mikro-tip catheter at the external meatus, to secure the catheter itself. The hypogastric nerve stimulation was made with a train of rectangular pulses of 10-15 V, 10-30 Hz, width 5 msec, 8 sec duration.
After a stabilising period following the surgical procedure (30 minutes), in which arterial and prostatic urethral pressure were continuously monitored as basal values, i.a. administration of NA and stimulation of the hypogastric nerve were alternately made at intervals of 10 minutes.
The dose of NA and the parameter of hypogastric nerve stimulation chosen were such as to produce an increase of at least 100% in urethral pressure. The test compounds were administered i.v. in a cumulative manner with intervals of 15-20 min between administrations. Both i.a. injections of NA and stimulations of the hypogastric nerve were repeated 5 minutes after every dosing of test compound with intervals of about 5 minutes between two stimulations. […]

[4] = molecular target: T3, human 5-HT1A-serotoninergic receptor (Homo sapiens, UniProt P08908); experiment: Radioligand binding assay ([3H]8-OH-DPAT) on membranes of transfected HeLa cells; details: human receptor in HeLa cells, read-out: Affinity (Ki, nM) 5-HT1A
T3 construct: expressed in transfected cells; host or cells: HeLa
T3 sequence (P08908 1-422): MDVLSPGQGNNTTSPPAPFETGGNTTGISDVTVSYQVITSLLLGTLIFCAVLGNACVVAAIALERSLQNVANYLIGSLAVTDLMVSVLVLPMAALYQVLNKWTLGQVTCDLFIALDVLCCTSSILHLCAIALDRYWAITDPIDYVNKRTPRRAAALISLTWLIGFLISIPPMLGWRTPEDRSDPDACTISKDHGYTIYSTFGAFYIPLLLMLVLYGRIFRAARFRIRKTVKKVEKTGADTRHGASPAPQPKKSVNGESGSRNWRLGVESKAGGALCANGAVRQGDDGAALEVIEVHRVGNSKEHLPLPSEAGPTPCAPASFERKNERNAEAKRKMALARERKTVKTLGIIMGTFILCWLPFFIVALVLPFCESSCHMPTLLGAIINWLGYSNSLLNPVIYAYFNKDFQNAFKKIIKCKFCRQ
Source text: Data were expressed as mean of Ki.

[5] = tested on: urethral contractions (UP) induced by hypogastric-nerve stimulation (HYP); experiment: Urethral contractions induced by hypogastric-nerve stimulation in anaesthetised dogs, i.v. administration; assay type: in vivo; details: Canis lupus familiaris, iv, dog, dose inhibiting by 50% urethral contractions induced by hypogastric-nerve stimulation, read-out: UP ID50 HYP
Experimental: as §1, with “In order to compare the effects of the administered compound, dose/response curves were constructed by computing, at the peak effect, the percent decrease in diastolic blood pressure and the percent inhibition of the increase in urethral pressure induced by both types of stimulation used.” left out

α1L adrenoceptor = experiment: Functional antagonism of noradrenaline-induced contractions of rabbit aorta pretreated with chloroethylclonidine; assay type: biochemical; details: functional affinity, NA-induced contractions
Experimental: Adult male New Zealand rabbits were sacrificed by cervical dislocation. The aorta was removed, placed in Krebs-Henseleit buffer and dissected free of adhering tissue.
Each antagonist concentration was tested using 2-3 aortic rings from different rabbits.
Dose ratios (i.e., the ratio between the concentrations of noradrenaline required to produce half-maximal response in the presence and in the absence of the test antagonist) were calculated at each concentration of the compounds.

[6] = read-out: Affinity (Ki, nM) α1d, recombinant receptor, [3H]prazosin

Row | Structure (SMILES) | Ki (α1a adrenergic receptor) [nM] | Ki [1] [nM] | further results
1 | Cc1onc(-c2ccccc2Cl)c1C(=O)NCCCN1CCN(c2ccc(F)cc2OCC(F)(F)F)CC1 [Example 11] | 0.12 | 4.66 | 
2 | Cc1onc(-c2c(F)cccc2Cl)c1C(=O)NCCCN1CCN(c2ccccc2OCC(F)(F)F)CC1 [Example 12, 3-(2-Chloro-6-fluorophenyl)-5-methyl-N-{3-[4-[2-(2,2,2-trifluoroethoxy)phenyl)-1-piperazinyl]-propyl}-isoxazole-4-carboxamide] | 0.16 | 2.19 | 
3 | O=C(NCCCN1CCN(c2ccc(F)cc2OCC(F)(F)F)CC1)c1conc1-c1ccc(F)cc1 [Example 8, 3-(4-Fluorophenyl)-N-{3-[4-[4-fluoro-2-(2,2,2-trifluoroethoxy)-phenyl]-1-piperazinyl]-propyl}-isoxazole-4-carboxamide] | 0.11 | 25.8 | 
4 | COc1ccc(Cl)cc1N1CCN(CCCNC(=O)c2c(-c3ccccc3)noc2C)CC1 [Example 1, N-{3-[4-(5-Chloro-2-methoxyphenyl)-1-piperazinyl]-propyl}-5-methyl-3-phenylisoxazole-4-carboxamide] |  |  | ED50 [2]: 3.4 µg/kg; R1 (DBP/NA) [2]: 101.6; DBP ED25 [3]: 345.4 µg/kg; Ki [1, 6]: 2.72 nM
5 | Cc1onc(-c2ccccc2)c1C(=O)NCCCN1CCN(c2cc(Cl)ccc2OS(=O)(=O)C(F)(F)F)CC1 [Example 7, N-{3-[4-[(5-Chloro-2-trifluoromethanesulphonyloxy)-phenyl]-1-piperazinyl]-propyl}-5-methyl-3-phenylisoxazole-4-carboxamide] | 0.918 | 38.9 | Ki [4]: 1000 nM
6 | Cc1onc(-c2c(Cl)cccc2Cl)c1C(=O)NCCCN1CCN(c2ccc(F)cc2OCC(F)(F)F)CC1 [Example 10, 3-(2,6-Dichlorophenyl)-N-{3-[4-[4-fluoro-2-(2,2,2-trifluoroethoxy)-phenyl]-1-piperazinyl]-propyl}-5-methylisoxazole-4-carboxamide.] | 2.28 | 38.6 | 
7 | Cc1onc(-c2ccccc2)c1C(=O)NCCCN1CCN(c2cc(Cl)ccc2O)CC1 [Example 2, N-{3-[4-(5-Chloro-2-hydroxyphenyl)-1-piperazinyl]-propyl}-5-methyl-3-phenylisoxazole-4-carboxamide] | 1.16 | 25.2 | 
8 | Cc1onc(-c2ccccc2)c1C(=O)NCCCN1CCN(c2ccc(F)cc2OCC(F)(F)F)CC1 [Example 6, N-{3-[4-[4-Fluoro-2-(2,2,2-trifluoroethoxy)-phenyl]-1-piperazinyl]-propyl}-5-methyl-3-phenylisoxazole-4-carboxamide] |  |  | ED50 [2]: 2.4 µg/kg; R1 (DBP/NA) [2]: 82; ED50 [5]: 4.5 µg/kg; DBP ED25 [3]: 196.7 µg/kg; Ki [1, 6]: 18.9 nM
9 | Cc1onc(-c2ccccc2)c1C(=O)NCCCN1CCN(c2cc(F)ccc2OCC(F)(F)F)CC1 [Example 5, N-{3-[4-[5-Fluoro-2-(2,2,2-trifluoroethoxy)-phenyl]-1-piperazinyl]-propyl}-5-methyl-3-phenylisoxazole-4-carboxamide] |  |  | pKb (α1L adrenoceptor): 8.79; ED50 [2]: 2.7 µg/kg; R1 (DBP/NA) [2]: 73; ED50 [5]: 3.4 µg/kg; DBP ED25 [3]: 197.0 µg/kg
10 | Cc1onc(-c2c(F)cccc2Cl)c1C(=O)NCCCN1CCN(c2ccc(F)cc2OCC(F)(F)F)CC1 [Example 9, 3-(2-Chloro-6-fluorophenyl)-N-{3-[4-[4-fluoro-2-(2,2,2-trifluoroethoxy)-phenyl]-1-piperazinyl]-propyl}-5-methylisoxazole-4-carboxamide] | 0.4 | 6.15 | 
11 | COc1ccc(OCC(F)(F)F)cc1N1CCN(CCCNC(=O)c2c(-c3ccccc3)noc2C)CC1 [Example 4, N-{3-[4-[2-Methoxy-5-(2,2,2-trifluoroethoxy)phenyl]-1-piperazinyl]-propyl}-5-methyl-3-phenylisoxazole-4-carboxamide] | 17 | 128 | Ki [4]: > 1000 nM

From patent publication EP1226131B1, “ISOXAZOLECARBOXAMIDE DERIVATIVES” (RECORDATI INDUSTRIA CHIMICA E FARMACEUTICA S.p.a., priority 1999, dated 2001)
